Reference: patent publication US12319913B2, “5-halouracil-modified microRNAs and their use in the treatment of cancer” (The Research Foundation for The State University of New York, priority 2018, dated 2025)
[5FU] = 5-fluorouracil base replacing uracil

Columns and labels:
[1] = tested on: MDA-MB-231 triple negative breast cancer cells; assay: MTT cell proliferation, MDA-MB-231, with or without oligofectamine; assay type: cell-based, human; conditions: for cell proliferation without delivery vehicle (no oligofectamine): MDA-MB-231, MTT assay; for cell proliferation in the presence of oligofectamine: MDA-MB-231, MTT assay for 6 days, vs miR-NC
Protocol: (§1) For transfections, 1×10^5 cells were plated in six-well plates and transfected with 100 nM of control non-specific miRNA (Thermo Fischer), a modified microRNA, or exogenous native microRNA after 24 hours using Oligofectamine (Thermo Fischer) following the manufacturer's protocols. For reagent free transfection, cells were plated in 6 well plates at (1×10^5) cells per well. Twenty-four hours later 100 pmol miRNA (Control, miR-15a, Mimic-1) were diluted in Optimem (Thermo Fischer) and added to the plate. Media was changed after 24 hours. Media was supplemented with 10% fetal bovine serum (Thermo Fischer). Briefly, cells were cultured in growth media (DMEM/F12 supplemented with B27, 10 ng/mL bFGF, and 20 ng/mL EGF (Life Technologies) in ultra-low attachment flasks) for up to 6 days. The spheroid cells were maintained by collection through gentle centrifugation, dissociation to single cells and replating.
Furthermore, to test whether or not the modified microRNAs of the present disclosure can be delivered directly to cells and taken up by the cancer cells without the use of transfer agents or vehicles (i.e., oligofectamine), MDA-MB-231 triple negative breast cancer cells were transfected with miR-NC (negative control), exogenous unmodified miR-200b or miR-489, 5-FU-miR-200b or modified miR-489 by using oligofectamine or without delivery vehicle. As shown in FIGS. 17A-17B and 20A, the effects of expression of the exemplary modified miRs tested on breast cancer cell proliferation were monitored by MTT assay for 6 days upon transfection or incubation.

MDC1 and SUZ12 = assay: Western blot of MDC1 and SUZ12 in triple negative breast cancer cells; assay type: cell-based, human; conditions: triple negative breast cancer cells, western blot
Protocol: Western immunoblot analysis: Forty-eight hours after transfection, equal amounts of protein (15 μg) extracted from cells lysed in RIPA buffer with protease inhibitor (Sigma) and were separated on 10%-12% sodium dodecyl sulfate-polyacrylamide gels using standard procedures. The primary antibodies used for the analysis were rabbit anti-YAP1 monoclonal antibody (1:10000) (Cell Signaling Technologies), anti-DLCK1 (1:500) (Abcam), anti-BCL2 (1:500) (NeoMarkers), anti-MDC1 (1:500), anti-SUZ12 (1:500), anti-pChk-1 (1:500), anti beta-actin (1:500), anti-BMI-1 (1:10000) (Cell Signaling Technologies), mouse anti-human TS antibody (1:500), anti-α-tubulin (1:50000) (Santa Cruz Biotech Inc.), anti-GAPDH (1:100000) (Santa Cruz Biotech Inc.), anti-E2F3 (1:500) (Santa Cruz Biotech Inc.), Horseradish peroxidase-conjugated antibodies against mouse or rabbit (1:5000, Santa Cruz Biotech Inc.) were used as the secondary antibodies. Protein bands were visualized with autoradiography film using SuperSignal West Pico Chemiluminescent Substrate (Thermo Fischer). Western blot density was quantified using Image J software.

[2] = tested on: HCT116 colon cancer cells; assay: WST-1 cell proliferation assay, HCT116; assay type: cell-based, human; conditions: HCT116, in words, vs controls
Protocol: as §1, with “1×10^5 cells were plated in six-well plates and transfected with 100 nM of control non-specific miRNA (Thermo Fischer), a modified microRNA, or exogenous native microRNA after 24 hours using Oligofectamine” left out
(§2) Cell proliferation assay: Twenty-four hours after transfection, cells were seeded in 96-well plates at a density of 2000 cells per well. The cell proliferation assay was performed on days 1 to 5 by incubating 10 μl WST-1 (Roche Applied Science, Mannheim, Germany) in the culture medium for 1 h and reading the absorbance at 450 and 630 nm. The cell proliferation rate was calculated by subtracting the […]. Experiments for the cell proliferation assay were performed at least three times. The O.D. was calculated by subtracting the absorbance at 630 nm from that at 450 nm. Proliferation experiments were performed three times.

A549 lung cancer cells = assay: Cell proliferation, A549; assay type: cell-based, human; conditions: A549, compared to negative controls
Protocol: as §1, §2

[3] = tested on: acute lymphocytic leukemia cell line (REH); assay: Cell proliferation, REH; assay type: cell-based, human; conditions: compared to negative controls
Protocol: as §1, §2

[4] = tested on: SKBR3 breast cancer cells; assay: Cell proliferation, SKBR3; assay type: cell-based, human; conditions: SKBR3, compared to negative controls
Protocol: as §1, §2

[5] = tested on: AsPC-1 pancreatic cancer cells; assay: Cell proliferation, AsPC-1; assay type: cell-based, human; conditions: APSC-1; 50 nM, 25 nM, 12.5 nM, 6.25 nM, and 3.125 nM
Protocol: as §1, with “For transfections, 1×10^5 cells were plated in six-well plates and transfected with 100 nM of control non-specific miRNA (Thermo Fischer), a modified microRNA, or exogenous native microRNA after 24 hours using Oligofectamine (Thermo Fischer) following the manufacturer's protocols.” left out
as §2

[6] = tested on: Panc-1 pancreatic cancer cells; assay: Cell proliferation, Panc-1; assay type: cell-based, human; conditions: PANC-1; 50 nM, 25 nM, 12.5 nM, 6.25 nM, and 3.125 nM
Protocol: as §1, with “For transfections, 1×10^5 cells were plated in six-well plates and transfected with 100 nM of control non-specific miRNA (Thermo Fischer), a modified microRNA, or exogenous native microRNA after 24 hours using Oligofectamine (Thermo Fischer) following the manufacturer's protocols.” left out
as §2

AGS stomach cancer cells = assay: Cell proliferation, AGS; assay type: cell-based, human; conditions: compared to negative controls
Protocol: as §1, §2

[7] = tested on: acute lymphocytic leukemia cell line (REH); assay: Cell proliferation, REH; assay type: cell-based, human; conditions: 50 nM, 25 nM, 12.5 nM, 6.25 nM, and 3.125 nM
[8] = tested on: Hs766T pancreatic cancer cells; assay: Cell proliferation, Hs766T; assay type: cell-based, human; conditions: compared to negative controls
Protocol: as §1, §2

[9] = tested on: HCT116 derived colon cancer stem cells; assay type: cell-based; conditions: lethal dose of 5-FU at 100 μM
Protocol: as §1
miR-129 mimics eliminated chemotherapy resistant colon cancer stem cells. To determine the impact of certain exemplary modified microRNAs of the present disclosure (i.e., miR-129 mimics) on 5-FU resistant colon cancer stem cells, HCT116 derived colon cancer stem cells were treated with various concentrations of Mimic-1 or 5-FU.

Row | Molecule | cell proliferation without delivery vehicle (no oligofectamine) [1] | cell proliferation in the presence of oligofectamine [1] | inhibition of colon cancer cell proliferation [2] | lung cancer cell proliferation (A549 lung cancer cells) | leukemia cancer cell proliferation [3] | breast cancer cell proliferation [4] | cell proliferation, dose dependence [5] | cell proliferation, dose dependence [6] | gastric cancer cell proliferation (AGS stomach cancer cells) | leukemia cancer cell proliferation, dose dependence [7] | pancreatic cancer cell proliferation [8] | also measured
1 | UAAUACUGCCUGGUAAUGAUGA (chemistry not fully specified; listed as Homo sapiens) [native miR-200b, 21] | had no effects on proliferation | reduced the rate of cell proliferation | – | – | – | – | – | – | – | – | – | cell proliferation without delivery vehicle (no oligofectamine) ([1]; listed as exogenous miR-200b): did not inhibit cell growth
2 | CGACGGCAUAUACACUACAGUG (chemistry not fully specified; listed as Homo sapiens) [native miR-489, 31] | did not inhibit cell growth | reduced the rate of cell proliferation | – | – | – | – | – | – | – | – | – | MDC1 and SUZ12 protein expression (MDC1 and SUZ12): reduction of MDC1 and SUZ12 protein expression; cancer cell proliferation, native miR without 5-FU chemotherapy ([1]; MDA-MB-231, MTT, compared with 5 μM 5-FU alone): reduces cancer cell proliferation in a manner similar to that exhibited when cells are treated with 5-FU alone
3 | CAGU^FGGUUUUACCCU^FAUGGU^FAG (CAGUGGUUUUACCCUAUGGUAG; RNA, [5FU] at 4, 15, 20, backbone not given here) [modified miR-140 [SEQ ID NO. 9], miR-140 in which certain (3) U bases are replaced by 5-fluorouracil] | – | – | increased ability to inhibit colorectal cancer cell proliferation | – | – | – | – | – | – | – | – | –
4 | CU^FGACCU^FAU^FGAAU^FU^FGACAGCC (CUGACCUAUGAAUUGACAGCC; RNA, [5FU] at 2, 7, 9, 13, 14, backbone not given here) [modified miR-192] | – | – | increased ability to inhibit colorectal cancer cell proliferation | inhibited | inhibited | inhibited | inhibited in a dose dependent manner | inhibited in a dose dependent manner | inhibited | inhibited in a dose dependent manner | inhibited | –
5 | U^FAACACU^FGU^FCU^FGGU^FAACGAU^FGU^F (UAACACUGUCUGGUAACGAUGU; U replaced by 5-fluorouracil, chemistry not fully specified) [modified miR-200a, miR-200a in which all (7) U bases are replaced by 5-fluorouracil] | – | – | – | inhibited | inhibited | inhibited | inhibited in a dose dependent manner | inhibited in a dose dependent manner | inhibited | inhibited in a dose dependent manner | inhibited | –
6 | O=c1[nH]cc(F)c(=O)[nH]1 [5-FU, 5-fluoro-1H-pyrimidine-2,4-dione, reference compound] | – | – | – | – | – | – | – | – | – | – | – | effect on tumor stem cell viability [9]: minimal effect
